# Measurements taken from patent US11648254B2 (Kumquat Biosciences Inc., priority 2021, dated 2023).
# Read-outs that look alike come from different tables or passages of the source.
# Target: SOS1 (Homo sapiens (Human), UniProt Q07889)
# Assay: Ras-SOS interaction assay (HTRF)
# Format: biochemical
# Text: The ability of any compound of the present disclosure to reduce a Ras protein signaling output by, e.g., interfering or disrupting interaction (or binding) between SOS1 and a Ras protein can be assessed in vitro. For example, the equilibrium interaction of human SOS1 (hSOS1) with human wildtype Kras or K-Ras mutant (e.g., hK-Ras G12C mutant, or hK-RasG12C) can be assessed as a proxy or an indication for a subject compound's ability to inhibit SOS. Detection of such interaction is achieved by measuring homogenous time-resolved fluorescence resonance energy transfer (HTRF) from (i) a fluorescence resonance energy transfer (FRET) donor (e.g., antiGST-Europium) that is bound to GST-tagged K-RasG12C to (ii) a FRET acceptor (e.g., anti-6His-XL665) bound to a His-tagged hSOS1.
# The assay buffer can contain 5 mM HEPES pH 7.4, 150 mM NaCl, 10 mM EDTA, 1 mM DTT, 0.05% BSA, 0.0025% (v/v) Igepal and 100 mM KF. A Ras working solution is prepared in assay buffer containing typically 10 nM of the protein construct (e.g., GST-tagged hK-RasG12C) and 2 nM of the FRET donor (e.g., antiGST-Eu(K) from Cisbio, France). A SOS1 working solution is prepared in assay buffer containing typically 10 nM of the protein construct (e.g., His-hSOS1) and 10 nM of the FRET acceptor (e.g., anti-6His-XL665 from Cisbio, France). An inhibitor control solution is prepared in assay buffer containing 10 nM of the FRET acceptor without the SOS1 protein.
# A fixed reaction mixture with or without test compound is transferred into a 384-well plate. Ras working solution is added to all wells of the test plate. SOS1 working solution is added to all wells except for those that are subsequently filled the inhibitor control solution. After approximately 60 min incubation, the fluorescence is measured with a M1000Pro plate reader (Tecan) using HTRF detection (excitation 337 nm, emission 1: 620 nm, emission 2: 665 nm). Compounds are tested in duplicates at different concentrations (for example, 10 μM, 2.5 μM, 0.63 μM, 0.16 μM, 0.04 μM, 0.01 μM test compound). The ratiometric data (i.e., emission 2 divided by emission 1) is used to calculate IC50 values against SOS1 using GraphPad Prism (GraphPad software).
# [1] = K-RasG13D utilized, read-out: IC50 inhibition of SOS
# [2] = K-RasG13D, read-out: IC50 value against SOS1
# Sequence of SOS1 (Q07889 564-1049): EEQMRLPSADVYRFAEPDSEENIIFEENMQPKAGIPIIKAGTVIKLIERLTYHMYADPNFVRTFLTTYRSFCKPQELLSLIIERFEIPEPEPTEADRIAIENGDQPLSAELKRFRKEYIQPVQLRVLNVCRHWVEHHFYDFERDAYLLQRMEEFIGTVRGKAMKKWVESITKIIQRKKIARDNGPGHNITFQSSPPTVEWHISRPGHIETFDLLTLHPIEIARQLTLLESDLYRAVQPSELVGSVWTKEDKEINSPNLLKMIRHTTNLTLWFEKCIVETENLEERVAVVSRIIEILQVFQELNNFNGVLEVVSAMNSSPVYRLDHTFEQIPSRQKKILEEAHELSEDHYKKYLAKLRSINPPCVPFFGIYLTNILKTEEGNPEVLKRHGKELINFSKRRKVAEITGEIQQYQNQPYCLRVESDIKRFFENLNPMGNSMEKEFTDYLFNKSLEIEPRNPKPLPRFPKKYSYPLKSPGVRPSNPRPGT
Compound,IC50 [1] [nM],IC50 [2] [nM]
"Cc1nc(N[C@H](C)c2cccc(C(F)F)c2F)c2cc(C3CCN(C)CC3)c(OC3COC3)nc2n1 [Compound 246, (R)-N-(1-(3-(difluoromethyl)-2-fluorophenyl)ethyl)-2-methyl-6-(1-methylpiperidin-4-yl)-7-(oxetan-3-yloxy)pyrido[2,3-d]pyrimidin-4-amine]",< 100,< 50
"Cc1nc(N[C@H](C)c2cccc3c2OC(C)(C)C3(F)F)c2cc(N3CCN(C(C)C)CC3)c(OCC3COC3)nc2n1 [Compound 274, (R)—N-(1-(3,3-difluoro-2,2-dimethyl-2,3-dihydrobenzofuran-7-yl)ethyl)-6-(4-isopropylpiperazin-1-yl)-2-methyl-7-(oxetan-3-ylmethoxy)pyrido[2,3-d]pyrimidin-4-amine]",100 to 1000,–
"COc1nc2nc(OCC3CCOCC3)nc(N[C@H](C)c3cccc(C(F)F)c3F)c2cc1C1(C#N)CC1 [Compound 275, (R)-1-(4-((1-(3-(difluoromethyl)-2-fluorophenyl)ethyl)amino)-7-methoxy-2-((tetrahydro-2H-pyran-4-yl)methoxy)pyrido[2,3-d]pyrimidin-6-yl)cyclopropane-1-carbonitrile]",100 to 1000,–
"COc1nc2ncnc(N[C@H](C)c3cccc(C(F)(F)CO)c3F)c2cc1N1CCS(=O)(=O)CC1 [Compound 279, (R)-4-(4-((1-(3-(1,1-difluoro-2-hydroxyethyl)-2-fluorophenyl)ethyl)amino)-7-methoxypyrido[2,3-d]pyrimidin-6-yl)thiomorpholine 1,1-dioxide]",100 to 1000,–
"COc1nc2ncnc(N[C@H](C)c3cccc(C(F)(F)F)c3F)c2cc1C1(C#N)CCN(C(C)C)CC1 [Compound 280, (R)-4-(4-((1-(2-fluoro-3-(trifluoromethyl)phenyl)ethyl)amino)-7-methoxypyrido[2,3-d]pyrimidin-6-yl)-1-isopropylpiperidine-4-carbonitrile]",100 to 1000,–
"COc1nc2ncnc(N[C@H](C)c3cccc(C(F)(F)F)c3F)c2cc1C1CCN(C)CC1 [Compound 281, (R)-N-(1-(2-fluoro-3-(trifluoromethyl)phenyl)ethyl)-7-methoxy-6-(1-methylpiperidin-4-yl)pyrido[2,3-d] pyrimidin-4-amine]",100 to 1000,–
"COc1nc2ncnc(N[C@H](C)c3cccc(C(F)(F)F)c3C)c2cc1C1CCN(C)CC1 [Compound 282, (R)-7-methoxy-N-(1-(2-methyl-3-(trifluoromethyl)phenyl)ethyl)-6-(1-methylpiperidin-4-yl)pyrido[2,3-d] pyrimidin-4-amine]",100 to 1000,–
"COc1nc2nc(C)nc(N[C@H](C)c3cccc(C(F)(F)C4CN(C(C)C)C4)c3F)c2cc1C1(C#N)CC1 [Compound 284, (R)-1-(4-((1-(3-(difluoro(1-isopropylazetidin-3-yl)methyl)-2-fluorophenyl)ethyl)amino)-7-methoxy-2-methylpyrido[2,3-d]pyrimidin-6-yl)cyclopropane-1-carbonitrile]",< 100,–
"COc1nc2nc(OCC3CN(C(C)C)C3)nc(N[C@H](C)c3cccc(C(F)(F)F)c3F)c2cc1C1CCS(=O)(=O)CC1 [Compound 286, (R)-4-(4-((1-(2-fluoro-3-(trifluoromethyl)phenyl)ethyl)amino)-2-((1-isopropylazetidin-3-yl)methoxy)-7-methoxypyrido[2,3-d]pyrimidin-6-yl)tetrahydro-2H-thiopyran 1,1-dioxide]",100 to 1000,–
"COc1nc2nc(C)nc(N[C@H](C)c3cccc(C(F)(F)F)c3F)c2cc1N1CCN(C2CCOCC2)CC1 [Compound 290, (R)-N-(1-(2-fluoro-3-(trifluoromethyl)phenyl)ethyl)-7-methoxy-2-methyl-6-(4-(tetrahydro-2H-pyran-4-yl)piperazin-1-yl)pyrido[2,3-d]pyrimidin-4-amine]",< 100,< 50
"COc1nc2nc(C)nc(N[C@H](C)c3cccc(C(F)(F)F)c3F)c2cc1C1(C#N)CCN(C(C)C)CC1 [Compound 306, (R)-4-(4-((1-(2-fluoro-3-(trifluoromethyl)phenyl)ethyl)amino)-7-methoxy-2-methylpyrido[2,3-d]pyrimidin-6-yl)-1-isopropylpiperidine-4-carbonitrile]",100 to 1000,–
"COc1nc2nc(C)nc(N[C@H](C)c3cccc(C(F)(F)F)c3F)c2cc1N1CCN(C(=O)[C@H]2COCCO2)CC1 [Compound 310, ((R)-1,4-dioxan-2-yl)(4-(4-(((R)-1-(2-fluoro-3-(trifluoromethyl)phenyl)ethyl)amino)-7-methoxy-2-methylpyrido[2,3-d]pyrimidin-6-yl)piperazin-1-yl)methanone]",< 100,–
"COc1nc2nc(C)nc(N[C@H](C)c3cccc(C(F)(F)F)c3F)c2cc1N1CCN(C(=O)C2CN(C)CCO2)CC1 (stereo partly drawn) [Compound 311, (4-(4-(((R)-1-(2-fluoro-3-(trifluoromethyl)phenyl)ethyl)amino)-7-methoxy-2-methylpyrido[2,3-d]pyrimidin-6-yl)piperazin-1-yl)(4-methylmorpholin-2-yl)methanone]",100 to 1000,–
"Cc1nc(N[C@H](C)c2cccc(C(F)F)c2F)c2cc(C3(C#N)CC3)c(NCC(C)(C)O)nc2n1 [Compound 319, (R)-1-(4-((1-(3-(difluoromethyl)-2-fluorophenyl)ethyl)amino)-7-((2-hydroxy-2-methylpropyl)amino)-2-methylpyrido[2,3-d]pyrimidin-6-yl) cyclopropane-1-carbonitrile]",100 to 1000,–
"Cc1nc(N[C@H](C)c2cccc(C(F)F)c2F)c2cc(N3CCN(C(C)C)CC3)c(NC3CNC3)nc2n1 [Compound 357, (R)-N7-(azetidin-3-yl)-N4-(1-(3-(difluoromethyl)-2-fluorophenyl)ethyl)-6-(4-isopropylpiperazin-1-yl)-2-methylpyrido[2,3-d]pyrimidine-4,7-diamine]",< 100,< 50

# Now from value to molecule:
IC50 [1] [nM],IC50 [2] [nM],Compound
< 100,< 50,"Cc1nc(N[C@H](C)c2cccc(C(F)F)c2F)c2cc(N3CCN(C)CC3)c(OCCN(C)C)nc2n1 [Compound 371, (R)-N-(1-(3-(difluoromethyl)-2-fluorophenyl)ethyl)-7-(2-(dimethylamino)ethoxy)-2-methyl-6-(4-methylpiperazin-1-yl)pyrido[2,3-d] pyrimidin-4-amine]"
< 100,< 50,"COc1nc2nc(C)nc(N[C@H](C)c3cccc(C(F)(F)F)c3F)c2cc1N1CCN(C(=O)[C@@H]2COCCO2)CC1 [Compound 382, ((S)-1,4-dioxan-2-yl)(4-(4-(((R)-1-(2-fluoro-3-(trifluoromethyl)phenyl)ethyl)amino)-7-methoxy-2-methylpyrido[2,3-d]pyrimidin-6-yl)piperazin-1-yl)methanone]"
100 to 1000,–,"Cc1nc(N[C@H](C)c2cccc(C(F)F)c2F)c2cc(C3(C#N)CC3)c(NCC3COC3)nc2n1 [Compound 398, (R)-1-(4-((1-(3-(difluoromethyl)-2-fluorophenyl)ethyl)amino)-2-methyl-7-((oxetan-3-ylmethyl)amino)pyrido[2,3-d]pyrimidin-6-yl)cyclopropane-1-carbonitrile]"
100 to 1000,–,"Cc1nc(N[C@H](C)c2cccc(C(F)F)c2F)c2cc(C3(C#N)CC3)c(OC3CCOCC3)nc2n1 [Compound 403, (R)-1-(4-((1-(3-(difluoromethyl)-2-fluorophenyl)ethyl)amino)-2-methyl-7-((tetrahydro-2H-pyran-4-yl)oxy)pyrido [2,3-d]pyrimidin-6-yl)cyclopropane-1-carbonitrile]"
100 to 1000,–,"C[C@@H](Nc1ncnc2nc(OC3COC3)c(C3(C(F)F)CC3)cc12)c1cccc(C(F)F)c1F [Compound 408, (R)-N-(1-(3-(difluoromethyl)-2-fluorophenyl)ethyl)-6-(1-(difluoromethyl)cyclopropyl)-7-(oxetan-3-yloxy)pyrido[2,3-d]pyrimidin-4-amine]"
< 100,< 50,"COc1nc2ncnc(N[C@H](C)c3cccc(C(F)F)c3F)c2cc1C1CCN(C2CCOCC2)CC1 [Compound 416, (R)-N-(1-(3-(difluoromethyl)-2-fluorophenyl)ethyl)-7-methoxy-6-(1-(tetrahydro-2H-pyran-4-yl)piperidin-4-yl)pyrido[2,3-d]pyrimidin-4-amine]"
100 to 1000,–,"Cc1nc(N[C@H](C)c2cccc(C(F)(F)F)c2C)c2cc(C3(C#N)CC3)c(Cl)nc2n1 [Compound 423, (R)-1-(7-chloro-2-methyl-4-((1-(2-methyl-3-(trifluoromethyl)phenyl)ethyl)amino)pyrido[2,3-d]pyrimidin-6-yl)cyclopropane-1-carbonitrile]"
